Activity calls are given as the source filed them. The calls are words filed in the database; no cut-off is given here.
Tests used:
[1] = system: Aggregatibacter actinomycetemcomitans; assay: Antimicrobial activity against Aggregatibacter actinomycetemcomitans infected in Balb/c mouse measured per 10^6 colonies at 100 mg/kg, sc measured 14 days post-infection by Gram staining technique (reference value: 6.41 +/- 0.96); assay type: functional; conditions: route subcutaneous
Mus musculus [2] = assay: Effect on OPG expression in Aggregatibacter actinomycetemcomitans infected Balb/c mouse model at 100 mg/kg, sc for 15 days post Aggregatibacter actinomycetemcomitans-challenge by Western blotting analysis; assay type: ADME, organism-based; parameters: dose 100 mg/kg, route subcutaneous; conditions: in vivo, 360 h
Mus musculus [3] = assay: Antiperiodontitic activity in Aggregatibacter actinomycetemcomitans infected Balb/c mouse model assessed as downregulation of RANKL expression at 100 mg/kg, sc for 15 days post Aggregatibacter actinomycetemcomitans-challenge by Western blotting analysis; assay type: functional, organism-based; parameters: dose 100 mg/kg
Mus musculus [4] = assay: Antiperiodontitic activity in Aggregatibacter actinomycetemcomitans infected Balb/c mouse model assessed as downregulation of ICAM-1 expression at 100 mg/kg, sc for 15 days post Aggregatibacter actinomycetemcomitans-challenge by Western blotting analysis; assay type: functional, organism-based; parameters: dose 100 mg/kg
Mus musculus [5] = assay: Antiinflammatory activity in Aggregatibacter actinomycetemcomitans infected Balb/c mouse model assessed as inhibition of IL-17 production at 100 mg/kg, sc for 15 days post Aggregatibacter actinomycetemcomitans-challenge by ELISA; assay type: functional, organism-based; parameters: dose 100 mg/kg
Mus musculus [6] = assay: Antiinflammatory activity in Aggregatibacter actinomycetemcomitans infected Balb/c mouse model assessed as inhibition of TNFalpha production at 100 mg/kg, sc for 15 days post Aggregatibacter actinomycetemcomitans-challenge by ELISA; assay type: functional, organism-based; parameters: dose 100 mg/kg
Mus musculus [7] = assay: Antiperiodontitic activity in Aggregatibacter actinomycetemcomitans infected Balb/c mouse model assessed as inhibition of alveolar bone loss at 100 mg/kg, sc for 15 days post Aggregatibacter actinomycetemcomitans-challenge by methylene blue staining-based microscopic analysis; assay type: functional, organism-based; parameters: dose 100 mg/kg
Mus musculus [8] = assay: Antiinflammatory activity in Aggregatibacter actinomycetemcomitans infected Balb/c mouse model assessed as inhibition of IL-1beta production at 100 mg/kg, sc for 15 days post Aggregatibacter actinomycetemcomitans-challenge by ELISA; assay type: functional, organism-based; parameters: dose 100 mg/kg

`O=c1c(O)c(-c2ccc(O)c(O)c2)oc2cc(O)cc(O)c12` [QUERCETIN] was tested, and the CFU [1] was 5.86, the Activity (Mus musculus [2]) was “Non-toxic” and the Activity (Mus musculus [3]) was “Active”. For the same compound, the Activity (Mus musculus [4]) was “Active”, the inhibition (Mus musculus [5]) was “Active” and the inhibition (Mus musculus [6]) was “Active”. The inhibition (Mus musculus [7]) was “Active” and the inhibition (Mus musculus [8]) was “Active”.
